Results on two molecules are retold here after ChEMBL document CHEMBL5725651, “Guanine analogs as telomerase substrates and telomere length affectors” (2018).

The nature of this test: HT3 cells were treated for three days with increasing concentrations of PMPG-diisopropyloxy ester ranging from 0.2 μM to 20 μM. Cells (HT3 RPMI+10% PBS) were incubated with compound for 24 hr after which PSTS primer (phosphorothioate-d(AATCCGTCGAGCAGAGTT (SEQ ID NO: 6) containing a 5′ Cy-5 label) (7.5 μM) and fresh compound are added for an additional 24 hr. Cells were lysed and endogenous telomerase inactivated by heating (15 min, 75° C.). Products were amplified by 30 cycles of PCR under TRAP conditions set forth above and quantified. The conditions noted are these: HT-3.

Regarding `C=C(COCP(=O)(OCOC(=O)OC(C)C)OCOC(=O)OC(C)C)Cn1cnc2c(=O)[nH]c(N)nc21`, the EC50 – broadly, the concentration needed to bring the measured effect to its halfway point – stood at 10.8 µM.

Regarding `CC(C)OC(=O)OCOP(=O)(COC(C)Cn1cnc2c(=O)[nH]c(N)nc21)OCOC(=O)OC(C)C` (configuration not stated), the EC50 came to 2.15 µM.
